{"source": "paper PMC10721898", "about": "“C5 methylation confers accessibility, stability and selectivity to picrotoxinin” (Nature Communications, 2023)", "key": {"rat GABAA ion channel [1]": {"tested_on": "rat GABAA ion channel", "details": "preliminary screen; read-out: IC50, competition with [3H]TBOB for binding to rat cerebral cortex; cited from earlier work"}, "rat GABAA ion channel [2]": {"tested_on": "rat GABAA ion channel", "assay": "Non-selective rat GABAA ion channel [3H]TBOB binding (antagonist radioligand) assay, rat cerebral cortex", "details": "for IC50: [3H]TBOB displacement, n = 1", "method": "The structurally privileged 5-methyl series was assayed for binding to both GABAA receptors (rat cortex membrane preparations) and RDL (expressed in Xenopus oocytes) and compared directly to the parent PXN (C5-H) series. The parallel series of PXN and 5MePXN analogs allowed us to interrogate the effect of the synthetically-enabling and stabilizing C5 methyl. […]\n4. Rat GABAA receptors binding assay\nNon-selective rat GABAA ion channel [3H] TBOB binding (Antagonist Radioligand) assay was conducted by Eurofins Pharma Discovery Service of Eurofins Cerep, France.\nCompound binding was calculated as a % inhibition of the binding of the radioactive ly labeled ligand [3H] TBOB (t‐[3H]Butylbicycloorthobenzoate) for rat GABAA ion channels.9 A 20.0 mM stock solution was prepared in DMSO from each test compound to evaluate radioligand displacement of [3H] TBOB from rat cerebral cortex GABAA receptors at different concentrations.\nThe results are expressed as a percent of control specific binding measured specific binding*100 […]\nand as a percent inhibition of control specific binding\n100 − (measured specific binding*100) […]\nobtained in the presence of the test compounds.\nThe IC50 values (concentration causing a half -maximal inhibition of control specific binding) and Hill coefficients (nH) were determined by non -linear regression analysis of th e competition curves generated with mean replicate values using Hill equation curve fitting […]\nwhere Y = specific binding, A = left asymptote of the curve, D = right asymptote of the curve , C = compound concentration, C 50 = IC50, and nH = slope factor. This analysis was performed using software developed at Cerep (Hill software) and validated by comparison with data generated by th e commercial software SigmaPlot® 4.0 for Windows ® (© 1997 by SPSS Inc.).\nThe inhibition constants (K i) were calculated using the Cheng Prusoff equation where L = concentration of radioligand in the assay, and KD = affinity of the radioligand for the recept or. A scatchard plot is used to determine the K D.\nSupplementary Table 8. IC50 values of test compound\n(§1) Compound IC50 (µM) Compound IC50 (µΜ)"}, "Drosophila RDL": {"target": "T1, Drosophila RDL (Drosophila melanogaster, UniProt P25123)", "T1 construct": "expressed in transfected cells; host or cells: Xenopus oocytes (Ecocyte, Austin, TX) microinjected with capped cRNA", "T1 sequence (P25123 45-606)": "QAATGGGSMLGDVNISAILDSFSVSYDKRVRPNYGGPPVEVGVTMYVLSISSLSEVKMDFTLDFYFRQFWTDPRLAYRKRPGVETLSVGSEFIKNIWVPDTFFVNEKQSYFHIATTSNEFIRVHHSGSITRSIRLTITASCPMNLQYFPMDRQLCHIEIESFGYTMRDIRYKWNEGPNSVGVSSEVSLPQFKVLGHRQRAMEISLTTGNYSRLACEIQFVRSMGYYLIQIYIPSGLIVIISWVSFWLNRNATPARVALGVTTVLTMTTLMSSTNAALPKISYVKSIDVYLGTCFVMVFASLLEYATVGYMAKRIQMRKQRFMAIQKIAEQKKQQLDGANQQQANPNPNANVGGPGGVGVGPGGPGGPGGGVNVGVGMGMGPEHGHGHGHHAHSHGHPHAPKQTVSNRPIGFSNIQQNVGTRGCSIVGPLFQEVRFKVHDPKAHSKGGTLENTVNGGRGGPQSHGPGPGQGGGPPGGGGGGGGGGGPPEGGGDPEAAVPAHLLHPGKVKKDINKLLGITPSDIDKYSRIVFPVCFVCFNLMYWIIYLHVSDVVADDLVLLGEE", "assay": "RDL receptors assay: two-electrode voltage clamp electrophysiology in Xenopus oocytes", "assay_type": "cell-based", "method": "5. RDL receptors binding assay\nThe Drosophila RDL sequence (NP_01261616.1) was cloned into the pGH19 backbone via Gibson assembly for capped cRNA synthesis using the T7 mMessage mMachine kit (Invitrogen). cRNA samples were stored at - 80 °C until use. Ready to inject Xenopus oocytes were obtained from Ecocyte (Austin, TX) and microinjected using a Nanoinject III (Drummond Scientific) with 4 nL of cRNA (1 μg/μL). The oocytes were then incubated at 16 °C in ND96 storage solution (93.5 mM NaCl, 2 mM KCl, 1.8 mM CaCl 2·2H2O, 2 mM MgCl 2·6H2O, 5 mM HEPES at pH 7.5). Recording were made 1 -6 days post injection.\nElectrophysiology experiments were performed using an automated two -electrode voltage clamp set -up (Roboocyte 2, Mutlichannel Systems). Recording head were filled with 3M KCl and gave resistan ce of 100-2000 kΩ in medium. Membrane potential was held at -60 mV and current signal was sampled at 20 kHz.\nExperiments were performed at room temperature using Modified Barth’s Saline (MBS) (88 mM NaCl, 1 mM KCl, 2.4 mM NaHCO 3, 15 mM HEPES, 0.3 mM Ca(NO3)2, 0.41 mM CaCl 2, and 0.82 mM MgSO 4·7H2O at pH 7.4). Oocytes were perfused with MBS at 5 mL/min in all assays. GABA and all compounds were dissolved in MBS and a 0.1% DMSO negative control was utilized to correct for any solvent effect.\nInitial block potential of each compound was assessed utilizing a pre -incubation method (MBS (30 sec), 10 μM GABA (15 sec), MBS wash (60 sec), compound (60 sec), compound + 10 μM GABA (15 sec), compound (60 sec), compound + 10 μM GABA (15 sec), MBS wash (60 sec) with 10 μM of each test compound. The maximum signal of the second co -application was compared to the initial GABA response to determine the % block and then standardized against the corresponding value of the 0.1% DMSO control. Dose responses were performed for any compound showing >50% block in the initial test using 10, 1, and 0.1 μM. The IC50 values were fit using an inhibitor vs response 4 -parameter fit (GraphPad Prism 8.1.2).\nSupplementary Table 9. IC50 values of test compound\nas §1"}, "[3]": {"assay": "Degradation in dilute sulfuric acid", "assay_type": "physicochemical", "details": "for stability to acid: 1 mol % H2SO4 (Fig. 1b); for degradation in acid: warming, 1% H2SO4, 0.18 M, aqueous"}, "[4]": {"details": "reversible solvolysis; cited from earlier work"}}, "note": "Like-named read-outs stand apart in the source and are kept apart here."}
{"smiles": "C=C(C)C1C2OC(=O)C1(C)C1(O)CC3OC34C(=O)OC2C41C", "note": "(centres unmarked) [5MePXN, 5-methylpicrotoxinin]", "values": [{"measurement": "IC50", "setting": "rat GABAA ion channel [1]", "value": "2100 ± 300", "unit": "nM"}, {"measurement": "loss in potency from PXN", "setting": "rat GABAA ion channel [2]; [3H]TBOB binding", "value": 10, "unit": "fold"}, {"measurement": "IC50", "setting": "rat GABAA ion channel [2]; Supplementary Table 8 (5MePXN series)", "value": 1800, "unit": "nM"}, {"measurement": "IC50", "setting": "Drosophila RDL", "value": 1710, "unit": "nM"}, {"measurement": "stability to acid", "setting": "[3]", "value": "stable"}, {"measurement": "degradation in acid", "setting": "[3]", "value": "did not react at all"}]}
{"smiles": "C=C(C)[C@@H]1[C@H]2OC(=O)[C@@H]1[C@]1(O)C[C@H]3O[C@]34C(=O)O[C@H]2[C@]14C", "note": "[PXN, picrotoxinin]", "values": [{"measurement": "IC50", "setting": "rat GABAA ion channel [2]; Supplementary Table 8 (PXN series)", "value": 210, "unit": "nM"}, {"measurement": "IC50", "setting": "Drosophila RDL", "value": 800, "unit": "nM"}, {"measurement": "stability to acid", "setting": "[3]", "value": "unstable"}, {"measurement": "degradation in acid", "setting": "[3]", "value": "clean conversion to picrotoxic acid (32) in 24 h"}, {"measurement": "half-life in mouse plasma", "setting": "[4]", "value": "~ 1 h"}]}
